# Source: patent publication US20240368127A1, “HSD17B13 INHIBITORS AND USES THEREOF” (FL2022-001, Inc., priority 2021, published 2024)
# Target: T1, Recombinant human HSD17B13 enzyme (Homo sapiens, UniProt Q7Z5P4)
# T1 sequence (Q7Z5P4 20-300): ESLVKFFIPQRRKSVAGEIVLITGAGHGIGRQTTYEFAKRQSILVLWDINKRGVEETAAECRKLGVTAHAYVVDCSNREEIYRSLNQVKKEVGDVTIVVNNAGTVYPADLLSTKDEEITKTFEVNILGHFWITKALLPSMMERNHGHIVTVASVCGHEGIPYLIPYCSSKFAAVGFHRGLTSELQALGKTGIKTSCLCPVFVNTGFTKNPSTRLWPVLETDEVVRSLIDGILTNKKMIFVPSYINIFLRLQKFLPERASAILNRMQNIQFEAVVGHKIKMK
# Assay: HSD17b13 NAD(P)H-Glo biochemical assay
# Details: 50 μM estradiol, 1 mM NAD+, 37° C. for 3 hours; read-out: HSD17β13 IC50
# Method in brief: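 Enzyme preincubated with inhibitor 20 min at RT in 20 mM Tris pH7.4, 0.002% Tween-20, 0.02% BSA, then reacted 3 h at 37° C with 50 μM estradiol and 1 mM NAD+ (final). NADH formation read by NAD(P)H-Glo luminescence after 1 h at RT.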
row,Structure (SMILES),IC50
1,"Cn1nc(-c2cc(O)c(F)c(F)c2C#N)c2cnc(N3CCN(S(C)(=O)=O)C[C@H]3Cc3ccccc3)nc21 [Compound 11.15, (R)-6-(6-(2-Benzyl-4-(methylsulfonyl)piperazin-1-yl)-1-methyl-1H-pyrazolo[3,4-d]pyrimidin-3-yl)-2,3-difluoro-4-hydroxybenzonitrile]",≤ 100 nM
2,"Cn1nc(-c2c(C#N)cc(F)c(O)c2F)c2cnc(N3CCN(S(C)(=O)=O)C[C@H]3Cc3ccccc3)nc21 [Compound 11.16, 2-(6-((R)-2-Benzyl-4-(methylsulfonyl)piperazin-1-yl)-1-methyl-1H-pyrazolo[3,4-d]pyrimidin-3-yl)-3,5-difluoro-4-hydroxybenzonitrile]",≤ 100 nM
3,"C#Cc1cc(-c2nn(C)c3nc(N4CCN(S(C)(=O)=O)C[C@H]4Cc4ccccc4)ncc23)c(F)c(O)c1F [Compound 11.17, (R)-3-(6-(2-Benzyl-4-(methylsulfonyl)piperazin-1-yl)-1-methyl-1H-pyrazolo[3,4-d]pyrimidin-3-yl)-5-ethynyl-2,6-difluorophenol]",≤ 100 nM
4,"CC#Cc1cc(-c2nn(C)c3nc(N4CCN(S(C)(=O)=O)C[C@H]4Cc4ccccc4)ncc23)c(F)c(O)c1F [Compound 11.18, (R)-3-(6-(2-Benzyl-4-(methylsulfonyl)piperazin-1-yl)-1-methyl-1H-pyrazolo[3,4-d]pyrimidin-3-yl)-2,6-difluoro-5-(prop-1-yn-1-yl)phenol]",≤ 100 nM
5,"Cc1c(C(F)(F)F)cc(-c2nn(C)c3nc(N4CCN(S(C)(=O)=O)C[C@H]4Cc4ccccc4)ncc23)c(F)c1O [Compound 11.19, (R)-3-(6-(2-Benzyl-4-(methylsulfonyl)piperazin-1-yl)-1-methyl-1H-pyrazolo[3,4-d]pyrimidin-3-yl)-2-fluoro-6-methyl-5-(trifluoromethyl)phenol]",≤ 100 nM
6,"Cc1c(F)cc(-c2nn(C)c3nc(N4CCN(S(C)(=O)=O)C[C@H]4Cc4ccccc4)ncc23)c(F)c1O [Compound 11.20, (R)-3-(6-(2-Benzyl-4-(methylsulfonyl)piperazin-1-yl)-1-methyl-1H-pyrazolo[3,4-d]pyrimidin-3-yl)-2,5-difluoro-6-methylphenol]",≤ 100 nM
7,"CN(C)C(=O)N1CCN(c2ncc3c(-c4cc(C(F)(F)F)c(F)c(O)c4F)nn(C)c3n2)C(CC2CC2)C1 (centres unmarked) [Compound 11.21, 3-(Cyclopropylmethyl)-4-(3-(2,4-difluoro-3-hydroxy-5-(trifluoromethyl)phenyl)-1-methyl-1H-pyrazolo[3,4-d]pyrimidin-6-yl)-N,N-dimethylpiperazine-1-carboxamide]",≤ 100 nM
8,"CCn1nc(-c2cc(C(F)(F)F)c(F)c(O)c2F)c2cnc(N3CCN(S(C)(=O)=O)C[C@H]3Cc3ccccc3)nc21 [Compound 11.22, (R)-3-(6-(2-Benzyl-4-(methylsulfonyl)piperazin-1-yl)-1-ethyl-1H-pyrazolo[3,4-d]pyrimidin-3-yl)-2,6-difluoro-5-(trifluoromethyl)phenol]",≤ 100 nM
9,"COC(=O)[C@@H]1COCCN1c1ncc2c(-c3cc(C(F)(F)F)c(F)c(O)c3F)nn(C)c2n1 [Compound 11.23, Methyl (S)-4-(3-(2,4-difluoro-3-hydroxy-5-(trifluoromethyl)phenyl)-1-methyl-1H-pyrazolo[3,4-d]pyrimidin-6-yl)morpholine-3-carboxylate]",≤ 100 nM
10,"CC(C)NC(=O)[C@@H]1COCCN1c1ncc2c(-c3cc(C(F)(F)F)c(F)c(O)c3F)nn(C)c2n1 [Compound 11.24, (S)-4-(3-(2,4-Difluoro-3-hydroxy-5-(trifluoromethyl)phenyl)-1-methyl-1H-pyrazolo[3,4-d]pyrimidin-6-yl)-N-isopropylmorpholine-3-carboxamide]",≤ 100 nM
11,"Cn1nc(-c2cc(C(F)(F)F)c(F)c(O)c2F)c2cnc(N3CCOC[C@H]3C(=O)NC3CCCCC3)nc21 [Compound 11.25, (S)-N-Cyclohexyl-4-(3-(2,4-difluoro-3-hydroxy-5-(trifluoromethyl)phenyl)-1-methyl-1H-pyrazolo[3,4-d]pyrimdiin-6-yl)morpholine-3-carboxamide]",≤ 100 nM
12,"Cn1nc(-c2cc(C(F)(F)F)c(F)c(O)c2F)c2cnc(N3CCOC[C@H]3C(=O)N3CCCCC3)nc21 [Compound 11.26, (S)-(4-(3-(2,4-Difluoro-3-hydroxy-5-(trifluoromethyl)phenyl)-1-methyl-1H-pyrazolo[3,4-d]pyrimidin-6-yl)morpholin-3-yl)(piperidin-1-yl)methanone]",≤ 100 nM
13,"Cn1nc(-c2cc(C(F)(F)F)c(F)c(O)c2F)c2cnc(N3CCN(S(C)(=O)=O)CC3CC3CCC3)nc21 (centres unmarked) [Compound 11.27, 3-(6-(2-(Cyclobutylmethyl)-4-(methylsulfonyl)piperazin-1-yl)-1-methyl-1H-pyrazolo[3,4-d]pyrimidin-3-yl)-2,6-difluoro-5-(trifluoromethyl)phenol]",≤ 100 nM
14,"Cn1nc(-c2cc(C(F)(F)F)c(F)c(O)c2F)c2cnc(N3CCN(C(N)=O)CC3CC3CC3)nc21 (centres unmarked) [Compound 11.28, 3-(Cyclopropylmethyl)-4-(3-(2,4-difluoro-3-hydroxy-5-(trifluoromethyl)phenyl)-1-methyl-1H-pyrazolo[3,4-d]pyrimidin-6-yl)piperazine-1-carboxamide]",≤ 100 nM
15,"Cn1nc(-c2cc(C(F)(F)F)c(F)c(O)c2F)c2cnc(N3CCO[C@@H](Cc4ccccc4)C3)nc21 [Compound 12, (S)-3-(6-(2-Benzylmorpholino)-1-methyl-1H-pyrazolo[3,4-d]pyrimidin-3-yl)-2,6-difluoro-5-(trifluoromethyl)phenol]",≤ 100 nM
16,"Cn1nc(-c2cc(C(F)(F)F)c(F)c(O)c2F)c2cnc(N3CCO[C@@H](Cc4cccnc4)C3)nc21 [Compound 12.01, (S)-2,6-Difluoro-3-(1-methyl-6-(2-(pyridin-3-ylmethyl)morpholino)-1H-pyrazolo[3,4-d]pyrimidin-3-yl)-5-(trifluoromethyl)phenol]",≤ 100 nM
17,"Cn1nc(-c2cc(C(F)(F)F)c(F)c(O)c2F)c2cnc(N3CCO[C@@H](Cc4ccc(C#N)cc4)C3)nc21 [Compound 12.02, (S)-4-((4-(3-(2,4-Difluoro-3-hydroxy-5-(trifluoromethyl)phenyl)-1-methyl-1H-pyrazolo[3,4-d]pyrimidin-6-yl)morpholin-2-yl)methyl)benoznitrile]",≤ 100 nM
18,"Cn1nc(-c2cc(C(F)(F)F)c(F)c(O)c2F)c2cnc(N3CCO[C@@H](Cc4cccc(C#N)c4)C3)nc21 [Compound 12.03, (S)-3-((4-(3-(2,4-Difluoro-3-hydroxy-5-(trifluoromethyl)phenyl)-1-methyl-1H-pyrazolo[3,4-d]pyrimidin-6-yl)morpholin-2-yl)methyl)benzonitrile]",≤ 100 nM
19,"Cn1nc(-c2cc(C(F)(F)F)c(F)c(O)c2F)c2cnc(N3CCO[C@@H](Cc4ccc(C(N)=O)cc4)C3)nc21 [Compound 12.04, (S)-4-((4-(3-(2,4-Difluoro-3-hydroxy-5-(trifluoromethyl)phenyl)-1-methyl-1H-pyrazolo[3,4-d]pyrimidin-6-yl)morpholin-2-yl)methyl)benzamide]",≤ 100 nM
20,"Cn1nc(-c2cc(C(F)(F)F)c(F)c(O)c2F)c2cnc(N3CCO[C@@H](Cc4cccc(C(N)=O)c4)C3)nc21 [Compound 12.05, (S)-3-((4-(3-(2,4-Difluoro-3-hydroxy-5-(trifluoromethyl)phenyl)-1-methyl-1H-pyrazolo[3,4-d]pyrimidin-6-yl)morpholin-2-yl)methyl)benzamide]",≤ 100 nM
